In ChEMBL document CHEMBL1909046, “DrugMatrix in vitro pharmacology data”:

What was measured:
[1] = DRUGMATRIX: Sodium/nucleoside co-transporter radioligand binding (ligand: nitrobenzylthioinosine); format: cell membranes, Cavia porcellus, Dunkin-Hartley, Cerebral cortex, Membrane; details: Not Active = under 50% inhibition at 10 µM
[2] = molecular target: T1, C-C chemokine receptor type 4 (Homo sapiens, UniProt P51679); format: cell membranes, Membrane; details: chem-1; note: in other assays of this panel Not Active means under 50% inhibition at 10 µM
T1 sequence (P51679 whole entry): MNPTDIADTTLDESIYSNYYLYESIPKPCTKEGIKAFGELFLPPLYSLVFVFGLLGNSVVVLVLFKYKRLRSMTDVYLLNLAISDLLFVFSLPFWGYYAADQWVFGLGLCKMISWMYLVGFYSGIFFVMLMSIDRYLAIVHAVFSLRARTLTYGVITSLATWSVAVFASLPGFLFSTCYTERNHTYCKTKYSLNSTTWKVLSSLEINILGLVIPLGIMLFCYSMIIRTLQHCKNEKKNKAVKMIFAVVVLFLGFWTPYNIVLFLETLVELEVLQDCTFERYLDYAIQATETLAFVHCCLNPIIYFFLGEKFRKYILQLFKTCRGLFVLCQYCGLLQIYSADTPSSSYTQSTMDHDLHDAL

[3] = molecular target: Insulin receptor (Rattus norvegicus, UniProt P15127); format: cell membranes, Wistar, Liver, Membrane; note: in other assays of this panel Not Active means under 50% inhibition at 10 µM
[4] = molecular target: Platelet-activating factor receptor (Homo sapiens, UniProt P25105); format: tissue-based; note: in other assays of this panel Not Active means under 50% inhibition at 10 µM
[5] = DRUGMATRIX: Platelet-Derived Growth Factor (PDGF) radioligand binding (ligand: [125I] PDGF); format: cell-based; details: nih3t3; Not Active = under 50% inhibition at 10 µM
[6] = DRUGMATRIX: Potassium Channel [KATP] radioligand binding (ligand: [3H] Glyburide); format: cell membranes, Membrane; details: hit-t15; Not Active = under 50% inhibition at 10 µM
[7] = molecular target: Matrix metalloproteinase-9 (Homo sapiens, UniProt P14780); test: biochemical; format: cell-based;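 note: inhibition of isolated MMP-9 enzyme activity toward a synthetic peptide substrate, from the DrugMatrix protease screening panel; in other assays of this panel Not Active means under 50% inhibition at 10 µM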
[8] = molecular target: Cytochrome P450 2E1 (Homo sapiens, UniProt P05181); details: bti-tn-5b1-4; note: in other assays of this panel Not Active means under 50% inhibition at 10 µM
[9] = molecular target: Cytochrome P450 3A4 (Homo sapiens, UniProt P08684); details: bti-tn-5b1-4; note: in other assays of this panel Not Active means under 50% inhibition at 10 µM
Sequence of Cytochrome P450 3A4 (P08684 whole entry): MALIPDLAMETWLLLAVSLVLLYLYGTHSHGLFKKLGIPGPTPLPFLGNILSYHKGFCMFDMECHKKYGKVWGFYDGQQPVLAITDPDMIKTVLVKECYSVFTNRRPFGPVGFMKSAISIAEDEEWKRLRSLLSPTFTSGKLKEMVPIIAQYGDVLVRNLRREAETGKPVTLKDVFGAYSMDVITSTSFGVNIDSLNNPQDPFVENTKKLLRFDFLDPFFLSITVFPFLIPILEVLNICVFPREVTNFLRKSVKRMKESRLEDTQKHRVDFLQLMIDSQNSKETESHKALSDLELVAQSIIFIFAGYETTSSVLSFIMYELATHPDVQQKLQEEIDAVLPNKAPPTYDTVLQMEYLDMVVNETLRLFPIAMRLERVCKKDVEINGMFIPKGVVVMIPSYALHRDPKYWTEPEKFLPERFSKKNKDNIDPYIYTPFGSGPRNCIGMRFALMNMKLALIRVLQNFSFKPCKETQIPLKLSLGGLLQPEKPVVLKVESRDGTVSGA

Sequence of Insulin receptor (P15127 27-759 limits assumed): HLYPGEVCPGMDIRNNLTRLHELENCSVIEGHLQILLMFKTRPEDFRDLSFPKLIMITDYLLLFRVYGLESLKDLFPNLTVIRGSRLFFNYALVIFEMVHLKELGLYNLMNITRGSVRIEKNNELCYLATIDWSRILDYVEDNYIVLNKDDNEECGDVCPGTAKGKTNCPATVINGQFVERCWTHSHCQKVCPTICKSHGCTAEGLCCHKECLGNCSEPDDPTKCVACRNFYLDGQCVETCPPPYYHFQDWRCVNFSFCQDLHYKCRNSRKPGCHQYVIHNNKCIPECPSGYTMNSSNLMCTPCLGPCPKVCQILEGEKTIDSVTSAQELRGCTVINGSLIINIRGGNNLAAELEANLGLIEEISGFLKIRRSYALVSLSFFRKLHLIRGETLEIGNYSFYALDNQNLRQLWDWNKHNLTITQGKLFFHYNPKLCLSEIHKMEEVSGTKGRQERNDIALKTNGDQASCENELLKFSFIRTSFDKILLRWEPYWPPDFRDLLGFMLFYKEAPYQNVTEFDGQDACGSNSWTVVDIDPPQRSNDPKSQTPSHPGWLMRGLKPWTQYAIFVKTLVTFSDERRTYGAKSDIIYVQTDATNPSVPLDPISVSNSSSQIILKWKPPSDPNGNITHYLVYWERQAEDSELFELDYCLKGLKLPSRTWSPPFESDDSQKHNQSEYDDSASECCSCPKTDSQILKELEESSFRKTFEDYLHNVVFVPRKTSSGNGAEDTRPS
Sequence of Insulin receptor (P15127 764-1383 limits assumed): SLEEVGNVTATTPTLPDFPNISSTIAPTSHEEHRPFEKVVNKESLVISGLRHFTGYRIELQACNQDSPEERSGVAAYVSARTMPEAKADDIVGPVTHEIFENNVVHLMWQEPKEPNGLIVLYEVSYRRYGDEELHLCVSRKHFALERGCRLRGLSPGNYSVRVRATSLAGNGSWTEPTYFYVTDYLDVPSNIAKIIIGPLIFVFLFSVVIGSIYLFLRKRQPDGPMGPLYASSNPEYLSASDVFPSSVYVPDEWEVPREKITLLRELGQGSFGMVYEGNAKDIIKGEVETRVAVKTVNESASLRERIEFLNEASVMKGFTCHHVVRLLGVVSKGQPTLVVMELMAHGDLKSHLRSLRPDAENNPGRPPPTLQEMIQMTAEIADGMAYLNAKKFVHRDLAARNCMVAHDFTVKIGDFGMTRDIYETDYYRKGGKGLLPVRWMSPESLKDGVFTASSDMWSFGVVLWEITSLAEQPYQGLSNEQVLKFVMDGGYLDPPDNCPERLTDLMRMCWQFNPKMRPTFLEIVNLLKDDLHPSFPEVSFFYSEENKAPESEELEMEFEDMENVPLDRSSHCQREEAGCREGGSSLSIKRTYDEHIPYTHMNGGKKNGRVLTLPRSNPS
Sequence of Matrix metalloproteinase-9 (P14780 whole entry): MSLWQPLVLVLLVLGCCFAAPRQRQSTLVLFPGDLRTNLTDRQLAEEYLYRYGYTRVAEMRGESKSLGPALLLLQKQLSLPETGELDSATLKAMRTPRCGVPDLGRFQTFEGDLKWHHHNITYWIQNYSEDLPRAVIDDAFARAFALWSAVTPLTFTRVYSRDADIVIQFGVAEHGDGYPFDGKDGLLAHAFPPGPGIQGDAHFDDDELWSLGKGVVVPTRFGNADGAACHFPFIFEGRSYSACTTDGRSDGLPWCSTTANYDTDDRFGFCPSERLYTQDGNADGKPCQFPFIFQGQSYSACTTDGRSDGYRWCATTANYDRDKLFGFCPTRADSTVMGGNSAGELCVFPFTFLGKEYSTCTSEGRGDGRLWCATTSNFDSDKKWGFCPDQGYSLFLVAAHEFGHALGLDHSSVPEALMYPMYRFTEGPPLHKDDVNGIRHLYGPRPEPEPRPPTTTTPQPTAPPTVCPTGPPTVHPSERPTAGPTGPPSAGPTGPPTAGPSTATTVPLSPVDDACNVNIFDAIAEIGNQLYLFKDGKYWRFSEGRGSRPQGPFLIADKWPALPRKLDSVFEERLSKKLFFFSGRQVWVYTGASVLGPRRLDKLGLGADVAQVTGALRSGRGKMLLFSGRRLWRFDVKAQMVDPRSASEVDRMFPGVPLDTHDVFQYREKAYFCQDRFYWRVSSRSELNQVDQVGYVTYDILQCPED
Sequence of Cytochrome P450 2E1 (P05181 whole entry): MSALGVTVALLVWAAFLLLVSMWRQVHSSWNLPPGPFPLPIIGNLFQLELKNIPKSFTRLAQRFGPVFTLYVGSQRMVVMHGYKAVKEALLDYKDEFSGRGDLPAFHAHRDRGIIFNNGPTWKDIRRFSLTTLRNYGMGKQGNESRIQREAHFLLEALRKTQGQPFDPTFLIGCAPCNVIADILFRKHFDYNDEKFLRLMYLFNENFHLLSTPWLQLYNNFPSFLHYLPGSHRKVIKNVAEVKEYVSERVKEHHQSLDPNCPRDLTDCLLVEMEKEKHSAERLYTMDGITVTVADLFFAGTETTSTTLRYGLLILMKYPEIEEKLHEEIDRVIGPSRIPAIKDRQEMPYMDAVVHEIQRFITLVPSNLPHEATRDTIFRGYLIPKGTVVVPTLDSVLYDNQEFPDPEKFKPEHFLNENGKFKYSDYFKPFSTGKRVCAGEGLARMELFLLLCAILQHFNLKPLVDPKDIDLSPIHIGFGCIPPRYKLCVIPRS
Sequence of Platelet-activating factor receptor (P25105 whole entry): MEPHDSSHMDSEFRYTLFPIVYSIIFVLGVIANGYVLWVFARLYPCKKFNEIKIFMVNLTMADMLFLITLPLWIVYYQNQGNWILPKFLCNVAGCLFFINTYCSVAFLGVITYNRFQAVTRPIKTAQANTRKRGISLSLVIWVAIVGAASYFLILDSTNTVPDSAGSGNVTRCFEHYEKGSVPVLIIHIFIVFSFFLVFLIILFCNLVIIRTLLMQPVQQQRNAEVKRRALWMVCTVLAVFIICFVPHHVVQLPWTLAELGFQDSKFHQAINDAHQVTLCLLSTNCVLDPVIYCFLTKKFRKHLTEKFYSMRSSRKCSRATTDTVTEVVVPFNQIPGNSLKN

C#CC1(O)CC[C@H]2[C@@H]3CCC4=CC(=O)CC[C@@H]4[C@H]3CC[C@@]21CC (some centres undefined) [NORGESTREL]
Not Active: IC50 [1] | Ki [1] | IC50 [2] | IC50 [3] | IC50 [4] | IC50 [5] | Ki [5] | IC50 [6] | Ki [6] | IC50 [7] | IC50 [8] | Ki [8] | IC50 [9] | Ki [9]

CCCN(CCC)S(=O)(=O)c1ccc(C(=O)O)cc1 [PROBENECID]
Not Active: IC50 [1] | Ki [1] | IC50 [2] | IC50 [3] | IC50 [4] | IC50 [5] | Ki [5] | IC50 [6] | Ki [6] | IC50 [7] | IC50 [8] | Ki [8] | IC50 [9] | Ki [9]

O=C1CN=C(c2ccccc2Cl)c2cc([N+](=O)[O-])ccc2N1 [CLONAZEPAM]
Not Active: IC50 [1] | Ki [1] | IC50 [2] | IC50 [3] | IC50 [4] | IC50 [5] | Ki [5] | IC50 [6] | Ki [6] | IC50 [7] | IC50 [8] | Ki [8] | IC50 [9] | Ki [9]

CC(C(=O)O)c1cccc(Oc2ccccc2)c1 (centres undefined) [FENOPROFEN]
Not Active: IC50 [1] | Ki [1] | IC50 [2] | IC50 [3] | IC50 [4] | IC50 [5] | Ki [5] | IC50 [6] | Ki [6] | IC50 [7] | IC50 [8] | Ki [8] | IC50 [9] | Ki [9]

GENTAMICIN
Not Active: IC50 [1] | Ki [1] | IC50 [2] | Ki [2] | IC50 [3] | Ki [3] | IC50 [4] | Ki [4] | IC50 [5] | Ki [5] | IC50 [6] | Ki [6] | IC50 [7] | Ki [7] | IC50 [8] | Ki [8] | IC50 [9] | Ki [9]

CC(=O)Oc1ccc(C(c2ccc(OC(C)=O)cc2)c2ccccn2)cc1 [BISACODYL]
Not Active: IC50 [1] | Ki [1] | IC50 [2] | IC50 [3] | IC50 [4] | IC50 [5] | Ki [5] | IC50 [6] | Ki [6] | IC50 [7] | IC50 [8] | Ki [8] | IC50 [9] | Ki [9]

C[C@@H]1O[C@@H](O[C@@H]2C=C3CC[C@@H]4[C@H](CC[C@]5(C)[C@@H](c6ccc(=O)oc6)CC[C@]45O)[C@@]3(C)CC2)[C@H](O)[C@H](O)[C@H]1O [PROSCILLARIDIN]
Not Active: IC50 [1] | Ki [1] | IC50 [2] | IC50 [3] | IC50 [4] | IC50 [5] | Ki [5] | IC50 [6] | Ki [6] | IC50 [7] | IC50 [8] | Ki [8] | IC50 [9] | Ki [9]

C[n+]1ccc(-c2cc[n+](C)cc2)cc1.[Cl-].[Cl-] [PARAQUAT DICHLORIDE]
Not Active: IC50 [1] | Ki [1] | IC50 [2] | IC50 [3] | IC50 [4] | IC50 [5] | Ki [5] | IC50 [6] | Ki [6] | IC50 [7] | IC50 [8] | Ki [8] | IC50 [9] | Ki [9]

Cc1cc2c(OCC(CNC(C)(C)C)OC(=O)c3ccccc3)cccc2[nH]1 (centres undefined) [BOPINDOLOL]
Not Active: IC50 [1] | Ki [1] | IC50 [2] | IC50 [3] | IC50 [4] | IC50 [5] | Ki [5] | IC50 [6] | Ki [6] | IC50 [7] | IC50 [8] | Ki [8] | IC50 [9] | Ki [9]

Nc1ccn([C@@H]2O[C@H](CO)[C@@H](O)C2(F)F)c(=O)n1 [GEMCITABINE]
Not Active: IC50 [1] | Ki [1] | IC50 [2] | IC50 [3] | IC50 [4] | IC50 [5] | Ki [5] | IC50 [6] | Ki [6] | IC50 [7] | IC50 [8] | Ki [8] | IC50 [9] | Ki [9]

Nc1ccn([C@@H]2O[C@H](CO)[C@@H](O)[C@@H]2O)c(=O)n1 [CYTARABINE]
Not Active: IC50 [1] | Ki [1] | IC50 [2] | IC50 [3] | IC50 [4] | IC50 [5] | Ki [5] | IC50 [6] | Ki [6] | IC50 [7] | IC50 [8] | Ki [8] | IC50 [9] | Ki [9]

GADOPENTETATE DIMEGLUMINE
Not Active: IC50 [1] | Ki [1] | IC50 [2] | Ki [2] | IC50 [3] | Ki [3] | IC50 [4] | Ki [4] | IC50 [5] | Ki [5] | IC50 [6] | Ki [6] | IC50 [7] | Ki [7] | IC50 [8] | Ki [8] | IC50 [9] | Ki [9]

C=CCc1ccc(O)c(OC)c1 [EUGENOL]
Not Active: IC50 [1] | Ki [1] | IC50 [2] | IC50 [3] | IC50 [4] | IC50 [5] | Ki [5] | IC50 [6] | Ki [6] | IC50 [7] | IC50 [8] | Ki [8] | IC50 [9] | Ki [9]

CCn1cc(C(=O)O)c(=O)c2cnc(N3CCCC3)nc21 [PIROMIDIC ACID]
Not Active: IC50 [1] | Ki [1] | IC50 [2] | IC50 [3] | IC50 [4] | IC50 [5] | Ki [5] | IC50 [6] | Ki [6] | IC50 [7] | IC50 [8] | Ki [8] | IC50 [9] | Ki [9]
